In general, IC50 refers to the concentration that gives 50% inhibition.

In US11492347B2 (ENYO PHARMA, priority 2018, dated 2022) one finds IC50 data, which are given here for 35 compounds.

The subject of the experiment is H1N1 (influenza A/New Caledonia/20/99). Kind of experiment: microbe, parasite or virus in culture. The experiment is classed as cell-based. To be noted: H1N1, A549, 48 h.

Structures can show the parent of a compound that is named as a salt.

`CC1(C)CCc2sc(NC(=O)c3cccc(N4CCOCC4)n3)c(C(=O)O)c2C1` [#213, 5,5-Dimethyl-2-[(6-morpholinopyridine-2-carbonyl)amino]-6,7-dihydro-4H-benzothiophene-3-carboxylic acid]: the IC50 was 610 nM. This lies in the sub-micromolar range.
The figure for `CC1(C)Cc2c(sc(NC(=O)c3ccc(NCC4CCCCO4)cc3)c2C(=O)O)C(C)(C)C1` (centres unmarked) [#166, 5,5,7,7-Tetramethyl-2-[[4-(tetrahydropyran-2-ylmethylamino)benzoyl]amino]-4,6-dihydrobenzothiophene-3-carboxylic acid] is 6.7 nM.
Then `CC1(C)Cc2c(sc(NC(=O)c3ccc(OC4CCOCC4)cc3)c2C(=O)O)C(C)(C)C1` [#170, 5,5,7,7-Tetramethyl-2-[(4-tetrahydropyran-4-yloxybenzoyl)amino]-4,6-dihydrobenzothiophene-3-carboxylic acid], with 35 nM.
Then `CC1(C)Cc2c(sc(NC(=O)c3ccc(NCC4CCCOC4)cc3)c2C(=O)O)C(C)(C)C1` (centres unmarked) [Compound #141, 5,5,7,7-Tetramethyl-2-[[4-(tetrahydropyran-3-ylmethylamino)benzoyl]amino]-4,6-dihydrobenzothiophene-3-carboxylic acid], with 3.3 nM; and `Cn1cc(C(=O)Nc2sc3c(c2C(=O)O)CC(C)(C)CC3(C)C)cn1` [#176, 5,5,7,7-Tetramethyl-2-[(1-methylpyrazole-4-carbonyl)amino]-4,6-dihydrobenzothiophene-3-carboxylic acid], with 460 nM.
On to `CC1(C)Cc2c(sc(NC(=O)c3ccccn3)c2C(=O)O)C(C)(C)C1` [Compound #90, 5,5,7,7-Tetramethyl-2-(pyridine-2-carbonylamino)-4,6-dihydrobenzothiophene-3-carboxylic acid], for which the midpoint of inhibition, the IC50, lay at 600 nM.
Consider `COC1CN(c2ccc(C(=O)Nc3sc4c(c3C(=O)O)C(C)CC(C)(C)C4)cc2)C1` (centres unmarked) [Compound #153, 2-[[4-(3-Methoxyazetidin-1-yl)benzoyl]amino]-4,6,6-trimethyl-5,7-dihydro-4H-benzothiophene-3-carboxylic acid], for which inhibition was half-maximal at 14 nM (IC50). Compared with the last compound, the IC50 is about 43-fold lower.
The figure for `CCOC1CN(c2ccc(C(=O)Nc3sc4c(c3C(=O)O)CC(C)(C)CC4(C)C)cc2)C1` [Compound #156, 2-[[4-(3-Ethoxyazetidin-1-yl)benzoyl]amino]-5,5,7,7-tetramethyl-4,6-dihydrobenzothiophene-3-carboxylic acid] is 2 nM.
On to `CC(=O)N1CC(Nc2ccc(C(=O)Nc3sc4c(c3C(=O)O)CC(C)(C)CC4(C)C)cc2)C1` [Compound #133, 2-[[4-[(1-Acetylazetidin-3-yl)amino]benzoyl]amino]-5,5,7,7-tetramethyl-4,6-dihydrobenzothiophene-3-carboxylic acid], for which the IC50 was found to be 750 nM. This IC50 lies about 380-fold higher than the previous one.
The figure for `CC1(C)CCc2sc(NC(=O)c3cccc(OC(F)F)c3)c(C(=O)O)c21` [Compound #98, 2-[[3-(Difluoromethoxy)benzoyl]amino]-4,4-dimethyl-5,6-dihydrocyclopenta[b]thiophene-3-carboxylic acid] is 800 nM; for `O=C(Nc1sc2c(c1C(=O)O)CCC1(CC1)C2)c1ccc(N2CCOCC2)cc1` [Compound #31, 2-[(4-Morpholinobenzoyl)amino]spiro[5,7-dihydro-4H-benzothiophene-6,1′-cyclopropane]-3-carboxylic acid] it is 100 nM; for `CC1(C)Cc2c(sc(NC(=O)c3ccc(N4CC5(COC5)C4)cc3)c2C(=O)O)C(C)(C)C1` [Compound #143, 5,5,7,7-Tetramethyl-2-[[4-(2-oxa-6-azaspiro[3.3]heptan-6-yl)benzoyl]amino]-4,6-dihydrobenzothiophene-3-carboxylic acid] it is 160 nM.
Then `CC1CC(C)(C)Cc2sc(NC(=O)c3ccc(N(C)C4CCOCC4)cc3)c(C(=O)O)c21` (centres unmarked) [#171], with 6.3 nM; and `CC1(C)CCc2c(sc(NC(=O)c3cccc(N4CCOCC4)n3)c2C(=O)O)C1` [#219, 6,6-Dimethyl-2-[(6-morpholinopyridine-2-carbonyl)amino]-5,7-dihydro-4H-benzothiophene-3-carboxylic acid], with 510 nM.
The figure for `COCC1CN(c2ccc(C(=O)Nc3sc4c(c3C(=O)O)CC(C)(C)CC4(C)C)cc2)C1` [#169, 2-[[4-[3-(Methoxymethyl)azetidin-1-yl]benzoyl]amino]-5,5,7,7-tetramethyl-4,6-dihydrobenzothiophene-3-carboxylic acid] is 15.5 nM; for `CN1CCN(c2ccc(C(=O)Nc3sc4c(c3C(=O)O)CC(C)(C)CC4(C)C)cc2)CC1` [Compound #80, 5,5,7,7-Tetramethyl-2-[[4-(4-methylpiperazin-1-yl)benzoyl]amino]-4,6-dihydrobenzothiophene-3-carboxylic acid] it is 310 nM; for `CC1(C)CCc2sc(NC(=O)c3ccnc(N4CCOCC4)c3)c(C(=O)O)c2C1` [#221, 5,5-Dimethyl-2-[(2-morpholinopyridine-4-carbonyl)amino]-6,7-dihydro-4H-benzothiophene-3-carboxylic acid] it is 380 nM.
In turn, `CC1(C)CCc2sc(NC(=O)c3ccc(N4CCOCC4)cc3)c(C(=O)O)c2C1` [Compound #159, 5,5-Dimethyl-2-[(4-morpholinobenzoyl)amino]-6,7-dihydro-4H-benzothiophene-3-carboxylic acid] displayed an IC50 of 18 nM.
For the compound `CC1(C)CCc2c(sc(NC(=O)c3cccc(N4CCOCC4)c3)c2C(=O)O)C1` [#203, 6,6-Dimethyl-2-[(3-morpholinobenzoyl)amino]-5,7-dihydro-4H-benzothiophene-3-carboxylic acid], it took 130 nM to reach half-maximal inhibition (IC50).
The figure for `CC1(C)Cc2c(sc(NC(=O)c3ccc(NC4CCCCC4)cc3)c2C(=O)O)C(C)(C)C1` [Compound #149, 2-[[4-(Cyclohexylamino)benzoyl]amino]-5,5,7,7-tetramethyl-4,6-dihydrobenzothiophene-3-carboxylic acid] is 7.1 nM; for `COCCCNc1ccc(C(=O)Nc2sc3c(c2C(=O)O)CC(C)(C)CC3(C)C)cc1` [Compound #140, 2-[[4-(3-Methoxypropylamino)benzoyl]amino]-5,5,7,7-tetramethyl-4,6-dihydrobenzothiophene-3-carboxylic acid] it is 3.4 nM; for `CC1(C)Cc2c(sc(NC(=O)c3ccc(NC4COC4)cc3)c2C(=O)O)C(C)(C)C1` [Compound #139, 5,5,7,7-Tetramethyl-2-[[4-(oxetan-3-ylamino)benzoyl]amino]-4,6-dihydrobenzothiophene-3-carboxylic acid] it is 11 nM.
The figure for `CC(=O)N1CCC(Nc2ccc(C(=O)Nc3sc4c(c3C(=O)O)CC(C)(C)CC4(C)C)cc2)CC1` [Compound #63, 2-[[4-[(1-Acetyl-4-piperidyl)amino]benzoyl]amino]-5,5,7,7-tetramethyl-4,6-dihydrobenzothiophene-3-carboxylic acid] is 80 nM; for `CC1(C)CCc2sc(NC(=O)c3ccn(CC4CCOCC4)n3)c(C(=O)O)c2C1` [#228, 5,5-Dimethyl-2-[[1-(tetrahydropyran-4-ylmethyl)pyrazole-3-carbonyl]amino]-6,7-dihydro-4H-benzothiophene-3-carboxylic acid] it is 900 nM; for `O=C(Nc1sc2c(c1C(=O)O)CCC(F)(F)C2)c1ccccc1` [Compound #117, 2-Benzamido-6,6-difluoro-5,7-dihydro-4H-benzothiophene-3-carboxylic acid] it is 1900 nM.
Then `CC1(C)CCc2sc(NC(=O)c3ccc(OC(F)F)cc3)c(C(=O)O)c21` [Compound #39, 2-[[4-(Difluoromethoxy)benzoyl]amino]-4,4-dimethyl-5,6-dihydrocyclopenta[b]thiophene-3-carboxylic acid], with 277 nM.
For the compound `COCCNc1ccc(C(=O)Nc2sc3c(c2C(=O)O)CC(C)(C)CC3)cc1` [#173, 2-[[4-(2-Methoxyethylamino)benzoyl]amino]-5,5-dimethyl-6,7-dihydro-4H-benzothiophene-3-carboxylic acid], the IC50 is 24 nM. Compared with the last compound, the IC50 is about 12-fold lower.
With `CC1(C)CCc2c(sc(NC(=O)c3ccc(OC(F)F)cc3)c2C(=O)O)C1` [Compound #23, 2-[[4-(Difluoromethoxy)benzoyl]amino]-6,6-dimethyl-5,7-dihydro-4H-benzothiophene-3-carboxylic acid], 80 nM corresponded to half-maximal inhibition (IC50).
The figure for `CC1(C)CCc2c(sc(NC(=O)c3ccc(N4CCOCC4)nc3)c2C(=O)O)C1` [#204, 6,6-Dimethyl-2-[(6-morpholinopyridine-3-carbonyl)amino]-5,7-dihydro-4H-benzothiophene-3-carboxylic acid] is 260 nM; for `CC1(C)CCc2sc(NC(=O)c3ccc(N4CCOCC4)cc3)c(C(=O)O)c21` [Compound #41, 4,4-Dimethyl-2-[(4-morpholinobenzoyl)amino]-5,6-dihydrocyclopenta[b]thiophene-3-carboxylicacid] it is 105 nM.
The figure for `CC1(C)Cc2c(sc(NC(=O)c3ccc(NC4CCNCC4)cc3)c2C(=O)O)C(C)(C)C1` [Compound #131, hydrochloride salt] is 350 nM; for `CN(CC1CCOCC1)c1ccc(C(=O)Nc2sc3c(c2C(=O)O)CC(C)(C)CC3(C)C)cc1` [Compound #152, 5,5,7,7-Tetramethyl-2-[[4-[methyl(tetrahydropyran-4-ylmethyl)amino]benzoyl]amino]-4,6-dihydrobenzothiophene-3-carboxylicacid] it is 0.5 nM; for `COc1cccc(C(=O)Nc2sc3c(c2C(=O)O)CCC(C)(C)C3)c1` [Compound #21, 2-[(3-Methoxybenzoyl)amino]-6,6-dimethyl-5,7-dihydro-4H-benzothiophene-3-carboxylic acid] it is 55.8 nM.
The figure for `COC1CCN(c2ccc(C(=O)Nc3sc4c(c3C(=O)O)CC(C)(C)CC4(C)C)cc2)CC1` [Compound #155, 2-[[4-(4-Methoxy-1-piperidyl)benzoyl]amino]-5,5,7,7-tetramethyl-4,6-dihydrobenzothiophene-3-carboxylic acid] is 10 nM; for `CC1(C)Cc2c(sc(NC(=O)c3ccc(NC4CCCOC4)cc3)c2C(=O)O)C(C)(C)C1` (centres unmarked) [Compound #142, 5,5,7,7-Tetramethyl-2-[[4-(tetrahydropyran-3-ylamino)benzoyl]amino]-4,6-dihydrobenzothiophene-3-carboxylic acid] it is 6.4 nM.
